The text below walks through data of PubChem BioAssay (NCI).

What all share (test): NCI tumour cell line growth inhibition, 48 h
The test system of assay [1] is A549 NSCLC.
The test system of assay [2] is NCI/ADR-RES ovarian.
Assay [3] has as its system HT29 colon.
The test system of assay [4] is BT-549 breast.
Assay [5] relates to UACC-257 melanoma.
Assay [6] concerns HL-60(TB) leukemia.
Assay [7] has as its system KM12 colon.

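Cultured in 96-well plates, cells were exposed to test compound for 48 hours across five concentrations. Here, GI50 denotes the concentration required for 50% inhibition of growth. The concentration for full growth arrest is given as TGI.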

Consider `COc1cc2ncn(-c3cc(OCCc4ccccc4)c(C(N)=O)s3)c2cc1OC`, for which the GI50 is above 25 µM in assay [1]; 14.8 µM in assay [2]; 13.6 µM in assay [3]; above 25 µM in assay [4]; above 25 µM in assay [5]; above 20.2 µM in assay [6]. The GI50 in assay [7] is 18.9 µM. Also, the TGI in assay [1], in assay [2], in assay [3], in assay [4], in assay [5] and in assay [6] was above 25 µM each time. The TGI in assay [7] is above 25 µM.

For `CCOC(=O)CNC(=O)c1ccccc1Nc1ccnc(C(F)(F)F)c1`, the GI50 in assay [1] is above 53.5 µM; in assay [2], above 71.5 µM; in assay [3], 44.4 µM; in assay [4], 42 µM; in assay [5] it was 68.7 µM; in assay [6], 33.2 µM. Besides, in assay [7], the GI50 was 30.2 µM. The TGI in assay [1], in assay [2], in assay [3], in assay [4], in assay [5] and in assay [6] was above 100 µM throughout. In assay [7], this compound registered a TGI above 86 µM.

As to `COc1ccc2c(c1)C(C)Cc1c(ncnc1-n1c(C)nc3ccccc31)N2C` (configuration not stated), the GI50 in assay [1] is 4.82 µM; in assay [2] it was 2 µM; in assay [3] it was 2.81 µM; in assay [4], 5.82 µM; in assay [5], 14.8 µM; in assay [6], 2.59 µM. Besides, the GI50 in assay [7] is 2.59 µM. Also, the TGI was found to be 24.7 µM in assay [1]; 19.3 µM in assay [2]; 8.94 µM in assay [3]; 30.6 µM in assay [4]; 33.5 µM in assay [5]; 9.7 µM in assay [6]. In assay [7], the TGI stood at 17.8 µM.

With `NC(CS/C(Cl)=C/Cl)C(=O)O` (configuration not stated), the GI50 in assay [1] was 1.69 µM; in assay [2], 31.8 µM; in assay [3] it was 54.7 µM; in assay [4], 12.1 µM; in assay [5], 23.3 µM; in assay [6], 51.7 µM. The GI50 in assay [7] was 67.3 µM. The TGI in assay [1] was 6.98 µM; in assay [2], above 100 µM; in assay [3], above 100 µM; in assay [4], above 64.1 µM; in assay [5], 78.8 µM; in assay [6] it was above 100 µM. In assay [7], this compound displayed a TGI above 100 µM.

In the case of `NC(N)=NCCCCCNc1noc(Cc2c[nH]c3cc(Br)ccc23)n1`, the GI50 in assay [1] is 14.2 µM; in assay [2], 40.4 µM; in assay [3], 19.5 µM; in assay [4] it was 3.35 µM; in assay [5], 14.6 µM; in assay [6], 7.21 µM. Besides, the GI50 in assay [7] was 3.95 µM. In addition, the TGI is above 100 µM in assay [1]; above 100 µM in assay [2]; above 100 µM in assay [3]; 14.9 µM in assay [4]; 80.3 µM in assay [5]; 28.8 µM in assay [6]. Besides, in assay [7], the TGI worked out at 15.9 µM.

Take `CC(=O)O[C@H](C[C@H](C(C)C)N(C)C(=O)[C@@H](NC(=O)[C@H]1CCCCN1C)C(C)C)c1nc(C(=O)N[C@@H](Cc2ccccc2)C[C@H](C)C(=O)O)c(CCOCc2ccccc2)s1`: the GI50 in assay [1] was below 0.001 µM; in assay [2] it was 0.003 µM; in assay [3], below 0.001 µM; in assay [4] it was below 0.001 µM; in assay [5], below 0.001 µM; in assay [6] it was below 0.001 µM. Besides, the GI50 in assay [7] is below 0.001 µM. For the same compound, the TGI in assay [1] was above 10 µM; in assay [2], 0.0511 µM; in assay [3] it was above 10 µM; in assay [4] it was 0.00816 µM; in assay [5] it was above 10 µM; in assay [6], below 0.001 µM.

For `CC1CCC(=O)C(C(=O)CC2CC(=O)NC(=O)C2)C1` (configuration not stated), the TGI in assay [1], in assay [2], in assay [3], in assay [4], in assay [5] and in assay [6] was above 100 µM in each case. The same compound gave a TGI in assay [7] above 100 µM.

With `O=C(Nc1ccc(CO)cc1)c1coc2ccccc2c1=O`, the GI50 was above 100 µM in assay [1]; above 100 µM in assay [2]; above 100 µM in assay [3]; 90.7 µM in assay [4]; above 100 µM in assay [5]; above 100 µM in assay [6]. Moreover, the GI50 in assay [7] is above 100 µM. The TGI in assay [1], in assay [2], in assay [3], in assay [4], in assay [5] and in assay [6] was above 100 µM throughout. Also, in assay [7], the TGI was above 100 µM.

Turning to `O=[N+]([O-])c1ccc2c(c1)C(c1ccccc1Cl)=Nc1cn[nH]c1N2`, the GI50 is 19.7 µM in assay [1]; 23.1 µM in assay [2]; 19.2 µM in assay [3]; 16.2 µM in assay [4]; above 25 µM in assay [5]; 14.4 µM in assay [6]. For the same compound, the GI50 in assay [7] was 12.1 µM. Further, the TGI in assay [1], in assay [2], in assay [3], in assay [4], in assay [5] and in assay [6] was above 25 µM throughout. In addition, the TGI in assay [7] is above 25 µM.

In the case of `Cn1cc(C2=C(c3cn(CCCCCN)c4ccccc34)C(=O)NC2=O)c2ccccc21`, the GI50 was 10.1 µM in assay [1]; 12.8 µM in assay [2]; 7.39 µM in assay [3]; 8.62 µM in assay [4]; 23.1 µM in assay [5]; 6.07 µM in assay [6]. Also, the GI50 in assay [7] was 17.8 µM. For the same compound, the TGI in assay [1] is above 25 µM; in assay [2], above 25 µM; in assay [3] it was above 22.8 µM; in assay [4], 24.3 µM; in assay [5], above 25 µM; in assay [6], 13.4 µM. This compound also registered a TGI in assay [7] above 25 µM.
